Assays:
[1] = target: T1, LINE1 reverse transcriptase (Homo sapiens, UniProt O00370); assay: Stable artificial-intron Cis LINE1 reporter assay (HeLa Tet-On 3G, Firefly luciferase); assay type: cell-based; settings: HeLa L1 artificial-intron reporter cells, doxycycline 500 ng/mL, 72 h, class symbols
T1 construct: expressed in transfected cells; host or cells: HeLa Tet-On 3G (Takara, cat no 631183)
How it was run: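 HeLa Tet-On 3G clone stably carrying a bi-directional doxycycline-inducible artificial-intron LINE1 reporter, plated at 8,000 cells/well onto serially diluted compound. Expression induced with 500 ng/mL doxycycline (final); Firefly luciferase luminescence (Dual-Glo) read 72 h after plating as LINE1 activity.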

[2] = tested on: interferon-stimulated gene (ISG) response; assay: In vivo decitabine challenge model in C57BL/6 mice (ISG response); set-up: species or system mouse; settings: decitabine i.p. 5 mg/kg, compound p.o. 0.6, 2.0, 6.0 mg/kg daily Day 0 to Day 4, IFIT2 v. GAPDH
Method: Exemplary compounds were tested for ability to alter the interferon-stimulated gene (ISG) response in C57BL/6 mice treated with decitabine. Assay procedures and results are described below. Twenty 9-11 week old C57BL/6 mice were acclimated to the lab for at least 5 days. Compound 23 was prepared in a 0.5% methylcellulose solution for p.o. administration. Decitabine (Sigma-Aldrich) was dissolved in sterile PBS (pH 7.4) and dosed within 30 minutes of preparation of the solution. Doses of both the compound and decitabine were administered once a day, every day from Day 0 to Day 4. On Day 0, mice were split into five groups of five mice and given their first dose of decitabine (i.p., 5 mg/kg) and compound 23. Dosing groups were: Decitabine and compound 23 were administered daily from Day 0 to Day 4. All mice were euthanized 1 hour after the last dose administration on Day 4. Spleens, liver, and terminal colon were collected, along with plasma from each animal. The fold changes in interferon-stimulated gene (ISG) expression was calculated by first normalizing to GAPDH gene using the Delta CT method. The CT (gene of interest)—CT (reference gene) was calculated to generate a delta CT for all samples. The fold change was then calculated by taking the Log2(Delta CT(control)—Delta CT (experimental). The control in this example was the PBS control animal group. The Taqman duplex assay was used to determine levels of GAPDH v. IFIT2. Twenty 9-11 week old C57BL/6 mice were acclimated to the lab for at least 5 days. Compound 2 was prepared in 20% PEG400 in PBS (final pH 4.5) for p.o. administration. Decitabine (Sigma) was dissolved in sterile PBS (pH 7.4) and dosed within 30 minutes of preparation of the solution. Doses of both Compound 2 and decitabine were administered once a day. On Day 0, mice were split into five groups of five mice and given their first dose of decitabine and Compound 2. […] The fold changes in interferon-stimulated gene (ISG, specifically IRF7 and MX1) expression was calculated by first normalizing to GAPDH gene using the Delta CT method. […]

[3] = tested on: human PBMC; assay: Decitabine-stimulated human PBMC assay (IFN-β, cell viability); assay type: cell-based; settings: 5 days; for IFN-β level: anti-CD3/anti-CD28, decitabine 10 μM
Method: EasySep buffer (32 mL, […] Technologies, cat. #20144) was used to dilute 8 mL of LRSC buffy coat (from fresh Leukopak) with gentle mixing. The diluted buffy coat (20 mL) was transferred into each of two SepMate 50 tubes, and the tubes were filled with 15 mL of Lyphoprep ([…], cat. #07851) density gradient. The SepMate tubes were then centrifuged at 1200G for 10 minutes at room temperature with the brake on. The top layer of supernatant was collected in SepMate tubes by quickly pouring it into a new 50 mL conical tube. The PBMCs were washed with EasySep buffer ×2 by centrifuging at 300G for 5 minutes. The cells were resuspended in 30 mL of EasySep and centrifuged at 100G for 5 minutes with the brake off, and the platelets were removed. The cells were then resuspended in 6 mL of 1×RBC lysis buffer (Invitrogen) and incubated at 37° C. for 5 minutes. 25 mL of EasySep buffer was then mixed into the tube and centrifuged at 300G for 5 minutes. The cells were resuspended in 10 mL of EasySep buffer and the cells were then counted with Cellometer (AO/PI). The PBMCs were resuspended in RPMI1640 (ThermoFisher)^+10% FBS (HyClone)^+μ/s at 3×10^6/mL. The PBMCs (100 μL, 300 k PBMCs) were then seeded in a 96-well flat bottom microplate (Corning) that had been precoated with 100 μL of anti-CD3 antibody (10 μg/mL in PBS, Biolegend) or PBS at 4° C., one day before the assay was commenced.
To each well the following solutions were added 1) 100 μL of cells (final cell number per well is 3×10^5 cell/well); 2) 25 μL of anti-CD28 antibody at 6×(5 μg/mL final concentration, Biolegend); 3) 25 μL of decitabine at 6×(10 μM final concentration); and 4) Compound in DMSO was dispensed directly into each well with a d300e digital dispenser (Tecan). The final concentration of DMSO for each well was normalized to 0.3%. The plate was incubated at 37° C. without any agitation for 5 days. Samples were collected 120 hours after incubation to determine IFN-0 and IL-2 levels using a U-PLEX Human IFN-β Assay Sector (5PL) (MSD, cat. #K151VIK-2).
After 5 days, the plate was spun down at 100×G for 5 minutes. Supernatants (100 μL) were collected for interferon β(IFN-β) analysis using the MSD assay noted above, and any residual supernatant was stored at −80° C.

[4] = target: T2, LINE1 reverse transcriptase (recombinant MBP-tagged LINE1 protein (238-1061)) (Homo sapiens, UniProt O00370); assay: Homogeneous time-resolved fluorescence (HTRF) LINE1 RT assay; assay type: biochemical; settings: triphosphate analogs, LINE1 enzyme 64 ng/well, 25° C. 60 minutes
T2 construct: recombinant MBP-tagged LINE1 protein (238-1061); made in house
Method: Exemplary triphosphate analogs were tested for the ability to inhibit LINE1 reverse transcriptase using a homogeneous time-resolved fluorescence (HTRF) assay. Assay procedures and results are described below.
The LINE1 reverse transcriptase homogeneous time-resolved fluorescence (HTRF) assay was performed with recombinant MBP-tagged LINE1 protein (238-1061) (generated and purified according to procedures in Dai L. et al. BMC Biochemistry 2011; 12:18) in a 384-well format. Test compound was serially diluted in DMSO and further diluted in the assay buffer (50 mM Tris-HCl, 50 mM KCl, 10 mM MgCl2, 10 mM DTT, pH 8.1) to achieve a final DMSO concentration of 1%. The serially diluted compound was mixed with 64 ng/well of LINE1 enzyme, 5 nM of pre-annealed template/biotin-primer pair (synthesized at Generay Biotechnology), 10 nM of Fluorescein-12-dCTP fluorescent probe (PerkinElmer), and 1 μM dGTP/dATP/dTTP (ThermoFisher Scientific) in the assay buffer. The template/biotin-primer sequences were as follows:
After incubating at 25° C. for 60 minutes, the detection reagent (20 mM EDTA with streptavidin-terbium cryptate, Cisbio Bioassay) in the PPI buffer (Cisbio Bioassay) was added, and the mixture was incubated at 25° C. for 30 minutes. At the end of the incubation, fluorescence was read at ex/em=337/485 nm and ex/em=337/520 nm on an Envision 2104 plate reader (PerkinElmer). The fluorescence ratio at 520/485 nm was used for the calculation. […] The IC50 was calculated by fitting the compound dose inhibition curve with a 4-parameter non-linear regression equation.

[5] = target: T3, HERV-K reverse transcriptase (Homo sapiens, UniProt V9H0F6); assay: Homogeneous time-resolved fluorescence (HTRF) HERV-K RT assay; assay type: biochemical; settings: triphosphate analogs, HERV-K enzyme 16 ng/well, 25° C. 30 minutes
T3 construct: fused on or other part: C-terminal 8xHis tag
Method: Exemplary triphosphate analogs were tested for ability to inhibit HERV-K reverse transcriptase using a homogeneous time-resolved fluorescence (HTRF) assay. Assay procedures and results are described below.
The HERV-K reverse transcriptase homogeneous time-resolved fluorescence (HTRF) assay was performed in a 384-well format with HERV-K reverse transcriptase (2-596)-8His protein. Baculoviruses were created using Bac-to-Bac technology (Invitrogen). pFastflac donor plasmids containing HERV-K reverse transcriptase sequence (NCBI GenBank number AAC63291.1, J. Virology (1999) Vol. 73, No. 3, pp. 2365-2375) were transformed into DH10 Bac cells following the manufacturer's instructions. Recombinant bacmids were then isolated clonally and transfected into SF9 cells with lipofectin. HERV-K reverse transcriptase was expressed in the SF9 insect cells and then purified using immobilized metal affinity chromatography (IMAC) followed by size-exclusion chromatography (SEC).
Test compound was serially diluted in DMSO and further diluted in the assay buffer (50 mM Tris-HCl, 50 mM KCl, 10 mM MgCl2, 10 mM DTT, pH 8.1) to achieve a final DMSO concentration of 1%. The serially diluted compound was mixed with 16 ng/well of HERV-K enzyme, 5 nM of pre-annealed template/biotin-primer pair (synthesized at Geneway Biotechnology), 10 nM of Fluorescein-12-dCTP fluorescent probe (PerkinElmer), and 1 mM dGTP, dATP, and DTTP (ThermoFisher). The template/biotin-primer sequences were:
After incubating at 25° C. for 30 minutes, the detection reagent 20 mM EDTA with streptavidin-terbium cryptate (Cisbio Bioassay) in the PPI buffer (Cisbio Bioassay) was added, and the mixture was incubated at 25° C. for 60 minutes. At the end of the incubation, fluorescence was read at ex/em=337/485 nm and ex/em=337/520 nm on an Envision 2104 plate reader (PerkinElmer). The fluorescence ratio at 520/485 nm was used for the calculation. […] IC50 values were calculated by fitting the compound dose inhibition curve with a 4-parameter non-linear regression equation.

[6] = tested on: THP1-Dual KO-TREX1 xenograft tumors; assay: Altering IFN production in THP1 TREX1 KO xenografts (compounds 2, 25, 40); assay type: in vivo, mouse; settings: CB-17 SCID mice, decitabine 5 mg/kg IP, test compound 10, 30 or 100 mg/kg PO once daily 4 days, tumors 24 h post-last dose
Method: Exemplary compounds 2, 25 and 40 were tested for their ability to alter IFN levels in THP1-Dual™ KO-TREX1 xenografts in mice. Assay procedures are described below.
CB-17 SCID female mice were inoculated subcutaneously with 10 million THP1-Dual™ KO-TREX1 cells in 200 μl PBS with Matrigel (1:1) and grouped when tumor volume reached 350-400 mm^3. Mice bearing THP1-Dual™ KO-TREX1 xenograft tumors were then separated into 5 groups. Three groups were administered: (1) decitabine (DAC) at 5 mg/kg IP, once daily, for 4 days, and (2) test compound at 10, 30, or 100 mg/kg, PO, once daily, for 4 days. One group was administered decitabine (DAC) at 5 mg/kg IP, once daily, for 4 days, and the test compound vehicle control. The final group was administered the vehicle control from both the test compound and the vehicle control from decitabine. Decitabine is formulated in sterile PBS, pH 7.4, and Compound 2, 25, and 40 were formulated in 20% PEG400 in PBS.
Tumors were harvested 24 h post-last dose administered on day 4, ground in PBS at 50 Hz for 5 min, and kept on ice for 30 min while being vortexed every 5 min. […] Equal amounts of proteins were added to 96-well black plates, and luciferase signal was measured using the QUANTI-Luc™ detection medium according to manufacturer's instructions. Luminescence was measured using the EnVision® 2105 Multimode Plate Reader. […]

T3 sequence (V9H0F6 entry or part of it): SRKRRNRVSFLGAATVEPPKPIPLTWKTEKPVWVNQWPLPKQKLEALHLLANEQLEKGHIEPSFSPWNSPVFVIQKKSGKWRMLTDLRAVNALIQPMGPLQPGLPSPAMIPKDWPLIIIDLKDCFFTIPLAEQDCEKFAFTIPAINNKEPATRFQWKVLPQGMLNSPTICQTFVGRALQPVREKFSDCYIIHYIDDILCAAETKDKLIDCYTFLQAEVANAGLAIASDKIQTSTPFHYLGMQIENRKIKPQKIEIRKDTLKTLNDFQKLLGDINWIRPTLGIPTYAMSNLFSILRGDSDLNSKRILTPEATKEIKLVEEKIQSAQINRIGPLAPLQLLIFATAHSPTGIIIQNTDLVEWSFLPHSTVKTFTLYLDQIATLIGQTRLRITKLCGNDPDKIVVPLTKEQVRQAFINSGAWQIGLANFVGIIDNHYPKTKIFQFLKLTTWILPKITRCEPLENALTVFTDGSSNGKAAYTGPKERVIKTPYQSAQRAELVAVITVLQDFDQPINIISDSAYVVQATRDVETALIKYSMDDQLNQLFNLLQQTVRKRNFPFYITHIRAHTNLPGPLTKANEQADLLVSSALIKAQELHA

Structure (SMILES) | IC50 [1] | change in interferon-stimulated gene (ISG) response (FIG. 2A) [2] | IFN-β level [3] | IC50 [4] | IC50 [5] | cell viability ([3]; decitabine 10 μM) | inhibition of DAC-induced IFN signal in THP1 tumors [6]
C#C[C@]1(CO)O[C@@H](n2cnc3c(N)nc(F)nc32)C[C@@H]1O [Compound 23, (2R,3S,5R)-5-(6-amino-2-fluoro-9H-purin-9-yl)-2-ethynyl-2-(hydroxymethyl) tetrahydrofuran-3-ol] | ≤ 50 nM | change in ISG response | activated production of IFN-β |  |  |  | 
Nc1nc(=O)n([C@@H]2O[C@](CBr)(COP(=O)(O)OP(=O)(O)OP(=O)(O)O)[C@@H](O)[C@@H]2F)cc1F [Compound 86-TP, ((2R,3R,4S,5R)-5-(4-amino-5-fluoro-2-oxopyrimidin-1(2H)-yl)-2-(bromomethyl)-4-fluoro-3-hydroxytetrahydrofuran-2-yl) methyl tetrahydrogen triphosphate; tetrakis(triethylamine)] |  |  |  | 1610 nM | > 10000 nM |  | 
Nc1ccn([C@@H]2O[C@@](CO)(CCl)[C@@H](O)[C@@H]2F)c(=O)n1 [Compound 40, 4-amino-1-((2R,3S,4R,5R)-5-(chloromethyl)-3-fluoro-4-hydroxy-5-(hydroxymethyl)tetrahydrofuran-2-yl)pyrimidin-2(1H)-one] | ≤ 50 nM |  | inhibition of IFN-0 |  |  | some cell viability losses at higher concentrations | potent inhibition of DAC-induced IFN signal
C#C[C@]1(CO)O[C@@H](n2cnc3c(N)nc(Cl)nc32)C[C@@H]1O [Compound 25, (2R,3S,5R)-5-(6-amino-2-chloro-9H-purin-9-yl)-2-ethynyl-2-(hydroxymethyl) tetrahydrofuran-3-ol] | ≤ 50 nM |  | activated production of IFN-β |  |  |  | 

From patent US20230295212A1 (ROME Therapeutics, Inc., priority 2022, published 2023)
